This is an account of results in ChEMBL document CHEMBL5046270, “A Selective and Orally Bioavailable Quinoline-6-Carbonitrile-Based Inhibitor of CDK8/19 Mediator Kinase with Tumor-Enriched Pharmacokinetics” (J Med Chem, 2022).

Data set [1] can be described thus: Elimination rate constant in plasma of BALB/c mouse xenografted with mouse CT26 cells at 100 mg/kg, po by LC-MS/MS analysis. The format is ADME, organism-based.
Data set [2] addresses T1, Myosin-IIIb (Homo sapiens) (UniProt Q8WXR4).
T1 sequence (whole entry): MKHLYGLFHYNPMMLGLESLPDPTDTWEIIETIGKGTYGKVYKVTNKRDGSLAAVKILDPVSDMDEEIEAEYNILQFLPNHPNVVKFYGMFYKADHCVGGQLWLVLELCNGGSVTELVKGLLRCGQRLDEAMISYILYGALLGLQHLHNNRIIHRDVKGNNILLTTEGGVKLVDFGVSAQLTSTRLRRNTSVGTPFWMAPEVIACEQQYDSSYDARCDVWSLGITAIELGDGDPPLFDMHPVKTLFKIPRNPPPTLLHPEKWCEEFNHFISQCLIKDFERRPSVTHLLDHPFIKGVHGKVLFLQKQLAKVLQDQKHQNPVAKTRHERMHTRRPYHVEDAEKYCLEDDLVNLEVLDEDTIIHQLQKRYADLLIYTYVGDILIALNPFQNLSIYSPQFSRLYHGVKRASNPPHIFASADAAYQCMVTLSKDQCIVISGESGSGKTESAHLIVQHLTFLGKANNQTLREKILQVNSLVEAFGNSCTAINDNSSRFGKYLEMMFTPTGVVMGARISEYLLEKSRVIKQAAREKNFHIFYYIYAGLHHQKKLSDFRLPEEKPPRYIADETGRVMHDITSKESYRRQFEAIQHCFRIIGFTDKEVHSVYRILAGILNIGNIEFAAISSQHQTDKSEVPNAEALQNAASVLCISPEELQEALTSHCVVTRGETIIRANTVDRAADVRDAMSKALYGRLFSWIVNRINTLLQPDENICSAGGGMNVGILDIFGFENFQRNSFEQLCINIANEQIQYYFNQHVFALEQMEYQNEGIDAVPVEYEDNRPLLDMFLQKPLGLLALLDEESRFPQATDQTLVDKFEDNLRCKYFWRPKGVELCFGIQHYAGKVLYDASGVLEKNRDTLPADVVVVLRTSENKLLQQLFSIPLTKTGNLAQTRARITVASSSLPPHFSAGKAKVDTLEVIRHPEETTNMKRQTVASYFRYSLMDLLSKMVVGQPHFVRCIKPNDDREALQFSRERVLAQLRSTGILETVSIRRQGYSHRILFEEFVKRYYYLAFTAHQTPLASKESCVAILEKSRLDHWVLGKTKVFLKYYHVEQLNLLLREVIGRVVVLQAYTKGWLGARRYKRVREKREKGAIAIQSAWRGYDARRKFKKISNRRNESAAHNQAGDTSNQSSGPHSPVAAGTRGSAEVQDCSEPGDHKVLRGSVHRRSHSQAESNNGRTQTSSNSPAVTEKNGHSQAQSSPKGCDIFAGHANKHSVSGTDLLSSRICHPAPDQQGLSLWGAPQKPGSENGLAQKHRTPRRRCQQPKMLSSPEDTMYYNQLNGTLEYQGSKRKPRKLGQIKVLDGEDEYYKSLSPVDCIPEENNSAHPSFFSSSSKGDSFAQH
The data set can be described thus: Inhibition of human MYO3B at 2 uM by competition binding assay relative to control. To be noted: values are per cent of control.

The target in data set [3] is T2, CDK8/Cyclin C (Homo sapiens) (UniProt P49336+P24863). The data set can be described thus: Binding affinity to kinase tracer 236 binding to His tagged recombinant human CDK8/cyclinC assessed as mean residence time by TR FRET based assay. The format is protein-complex assay. Background: In TR-FRET formats the signal depends on donor and acceptor labels being close together.

Data set [4] is described as follows: Cmax in plasma of BALB/c mouse xenografted with mouse CT26 cells at 100 mg/kg, po by LC-MS/MS analysis. The format is ADME, organism-based. On the set-up: route oral, dose 100 mg/kg.
Data set [5] concerns the target T2, CDK8/Cyclin C (Homo sapiens). The data set can be described thus: Binding affinity to kinase tracer 236 binding to His tagged recombinant human CDK8/cyclinC assessed as rate constant (kon) by TR FRET based assay. The format is protein-complex assay.
Data set [6] can be described thus: Metabolic stability in human hepatocyte assessed as intrinsic clearance at 2 uM measured per 10^6 by LC-MS/MS analysis. The format is ADME, cell-based. To be noted: hepatocytes.
A short description of data set [7]: Plasma C0 in BALB/c mouse xenografted with mouse CT26 cells at 2.5 mg/kg, iv by LC-MS/MS analysis. The format is ADME, organism-based.
The test system of data set [8] is HEK293. The data set can be described thus: Inhibition of TNFalpha induced CDK8/19 dependent NF kappa B activity in Wild type HEK293 cell for 3 hrs by qt-PCR analysis. The format is functional, cell-based. The conditions noted are these: Homo sapiens.
Data set [9] has as its system HEK293. In words: Effect of compound on HEK293 cells assessed as expression of mRNA in NFkappaB induced CXCL8 gene in presence of pretreatment with TNFalpha for 2 hr by qPCR analysis. The format is functional, cell-based. The conditions noted are these: Homo sapiens.
The nature of data set [10]: Tmax in plasma of BALB/c mouse xenografted with mouse CT26 cells at 100 mg/kg, po by LC-MS/MS analysis. The format is ADME, organism-based.
Data set [11] deals with Cyclin-dependent kinase 19 (Homo sapiens) (UniProt Q9BWU1). The data set can be described thus: Inhibition of human CDK19 at 2 uM by competition binding assay relative to control. The conditions noted are these: values are per cent of control.
Sequence of Cyclin-dependent kinase 19 (Homo sapiens) (Q9BWU1 whole entry): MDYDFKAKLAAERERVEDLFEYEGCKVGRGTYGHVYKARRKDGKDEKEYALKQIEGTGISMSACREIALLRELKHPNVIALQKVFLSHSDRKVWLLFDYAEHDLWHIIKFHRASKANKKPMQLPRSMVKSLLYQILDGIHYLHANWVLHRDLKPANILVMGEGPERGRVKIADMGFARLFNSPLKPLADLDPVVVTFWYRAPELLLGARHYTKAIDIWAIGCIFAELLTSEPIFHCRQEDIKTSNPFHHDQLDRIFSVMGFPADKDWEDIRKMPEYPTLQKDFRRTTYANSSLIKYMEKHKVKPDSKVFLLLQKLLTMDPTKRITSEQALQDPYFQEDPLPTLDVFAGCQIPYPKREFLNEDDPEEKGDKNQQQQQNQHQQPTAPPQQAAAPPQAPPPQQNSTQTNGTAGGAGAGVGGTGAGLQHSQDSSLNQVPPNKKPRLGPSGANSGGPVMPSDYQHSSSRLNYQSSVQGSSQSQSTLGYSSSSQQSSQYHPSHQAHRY
Data set [12] in a line: Elimination rate constant in plasma of BALB/c mouse xenografted with mouse CT26 cells at 2.5 mg/kg, iv by LC-MS/MS analysis. The format is ADME, organism-based.
The target in data set [13] is T3, Cyclin-C/Cyclin-dependent kinase 19 (Homo sapiens) (UniProt Q9BWU1+P24863). The data set can be described thus: Binding affinity to recombinant human CDK19/cyclinC assessed as rate constant (kon) by TR FRET based assay. The format is protein-complex assay.
The nature of data set [14]: Toxicity in BALB/c mouse bearing CT26 tumor model assessed as change in body weight at 100 mg/kg, po qd for 7 days by LC-MS/MS analysis. The format is organism-based. To be noted: in vivo, 168 h, time 7 day.
The nature of data set [15]: Downregulation of CDK8/19 in HEK293 cells assessed as mRNA expression level in MYC gene at 1 uM for 3 hrs pretreatment and measured after 24 hr post wash-off by qt-PCR analysis. The format is functional. The conditions noted are these: Homo sapiens, time 27 hrs.
The next data set has as its target CDK8/Cyclin C (Homo sapiens, UniProt P49336). The data set can be described thus: Binding affinity to kinase tracer 236 binding to His tagged recombinant human CDK8/cyclinC assessed as dissociation constant by TR FRET based assay. The format is protein-complex assay.
Data set [16] in a line: Cmax in tumor of BALB/c mouse xenografted with mouse CT26 cells at 100 mg/kg, po by LC-MS/MS analysis. The format is ADME, organism-based, Neoplasm. On the set-up: route oral, dose 100 mg/kg.
In data set [17] the target is Cyclin-C/Cyclin-dependent kinase 19 (Homo sapiens, UniProt Q9BWU1). The data set can be described thus: Binding affinity to recombinant human CDK19/cyclinC assessed as dissociation constant by TR FRET based assay. The format is protein-complex assay.
Sequence of Cyclin-C/Cyclin-dependent kinase 19 (Q9BWU1 whole entry): as above
Sequence of Cyclin-C/Cyclin-dependent kinase 19 (P24863 whole entry, further chain): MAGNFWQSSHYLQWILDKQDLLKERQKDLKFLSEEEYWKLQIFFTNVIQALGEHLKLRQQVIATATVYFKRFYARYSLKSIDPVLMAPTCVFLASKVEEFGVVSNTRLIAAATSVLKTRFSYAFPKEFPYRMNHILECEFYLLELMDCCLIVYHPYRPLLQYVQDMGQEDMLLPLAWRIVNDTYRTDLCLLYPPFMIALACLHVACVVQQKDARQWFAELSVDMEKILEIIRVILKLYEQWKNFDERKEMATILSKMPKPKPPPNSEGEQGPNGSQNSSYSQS
The nature of data set [18]: Inhibition of CDK8/CDK19 in MV4-11 cells and measured after 7 days by Spectra max iD5 microplate reader. The format is cell-based, Homo sapiens.
For data set [19], the system named is HEK293. In words: Effect of compound on HEK293 cells assessed as mRNA expression in CDK8/19 dependent MYC gene in presence of pretreatment with TNFalpha for 2 hr by qPCR analysis. The format is functional, cell-based. To be noted: Homo sapiens.
A short description of data set [20]: Cmax in tumor of BALB/c mouse xenografted with mouse CT26 cells at 2.5 mg/kg, iv by LC-MS/MS analysis. The format is ADME, organism-based, Neoplasm. On the set-up: route intravenous, dose 2.5 mg/kg.
For data set [21], the target named is T3, Cyclin-C/Cyclin-dependent kinase 19 (Homo sapiens). The data set can be described thus: Binding affinity to recombinant human CDK19/cyclinC assessed as rate constant (koff) by TR FRET based assay. The format is protein-complex assay.

Calls of active or inactive are those of the source. The calls are words filed in the database; no cut-off is given here.

Sequence of CDK8/Cyclin C (P49336 whole entry): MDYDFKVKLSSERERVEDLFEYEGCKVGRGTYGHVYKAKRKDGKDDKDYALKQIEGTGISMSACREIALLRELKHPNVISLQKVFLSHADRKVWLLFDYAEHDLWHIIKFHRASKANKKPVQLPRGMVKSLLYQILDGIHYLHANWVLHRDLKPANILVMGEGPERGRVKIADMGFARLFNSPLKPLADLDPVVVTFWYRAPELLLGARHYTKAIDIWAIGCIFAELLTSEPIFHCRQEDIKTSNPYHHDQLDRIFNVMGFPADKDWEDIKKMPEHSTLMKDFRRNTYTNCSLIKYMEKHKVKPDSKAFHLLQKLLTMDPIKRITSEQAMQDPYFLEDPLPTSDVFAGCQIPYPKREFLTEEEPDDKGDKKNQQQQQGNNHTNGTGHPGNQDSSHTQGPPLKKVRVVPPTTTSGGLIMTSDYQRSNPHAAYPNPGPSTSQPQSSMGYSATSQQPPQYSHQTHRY
Sequence of CDK8/Cyclin C (P24863 whole entry, further chain): as the sequence (P24863 whole entry, further chain) above

Broadly, the Cmax is the peak of the concentration-time curve. The term Tmax denotes the time at which the peak concentration occurs. The term inhibition denotes the change of the read-out against control, counted positive when it falls. The term Kd denotes the equilibrium constant for the complex coming apart. By IC50 is commonly meant the midpoint of a concentration-inhibition curve. For the molecule `CN1CCN(C(=O)c2ccc3cc(CCNc4ccnc5ccc(C#N)cc45)ccc3c2)CC1`, the k el in data set [1] was 5.56e-05 s⁻¹; in [12], 0.000258 s⁻¹. In addition, the residual binding, % of control in [2] is 31%; in data set [11], 13%. The MRT in data set [3] was found to be 0.227 h. Also, the Cmax in data set [4] stood at 144 ng/mL; in data set [16], 5730 ng/mL; in data set [20] it was 488 ng/mL. Further, the K in data set [5] was 8.78 10^6/M/s; in data set [13], 9.39 10^6/M/s; in data set [21], 0.00272 s⁻¹. For the same molecule, the CLH in [6] was determined as 0.00639 mL/min. The C0 in data set [7] is 503 ng/mL. The result with HEK293 [8], with HEK293 [9] and with HEK293 [19] was Active. Moreover, in data set [10], the Tmax is 12 h. Besides, the Activity entry in data set [14] is listed as “Non-Toxic”. The inhibition at 1 µM in [15] was 30%. Also, the Kd at CDK8/Cyclin C was 1.39 nM; in data set [17], 2.9 nM. The same molecule registered an IC50 in data set [18] of 108 nM.
